Patent US6566081B1, “Methods of identifying a compound which modulates the non-transcriptional non-map-kinase induced effects of steroid hormones” (The Brigham and Women's Hospital, Inc., priority 1999, dated 2003)
Entries after “also recorded” stand apart in the source; their conditions may differ.

Assays:
Assay type in all cases: cell-based, human
NO release = assay: Nitrite assay (NO accumulation from endothelial cells); details: for stimulation of NO release / production (nitrite accumulation): 30 min, E2/αE2 10 nM, insulin 100 nM, acetylcholine; for effect on E2-induced NO release / production: E2 10 nM 30 min, ICI 10 μM, wortmannin 30 nM
Method: NO accumulation from serum-starved endothelial cells was determined by a modified nitrite assay using 2, 3 diaminonaphtalene as described previously.^33 Fluorescence of 1-(H)-naphtotriazole was measured with excitation and emission wavelengths of 365 and 450 nm, respectively. Standard curves were constructed with known amounts of sodium nitrite. Nonspecific fluorescence was determined in the presence of LNMA (3 mM).

PI3-kinase = PI3-kinase assay on p85 immunoprecipitates of endothelial cell lysates; details: for stimulation of PI3-kinase activity: E2/αE2 10 nM, insulin 100 nM; for effect on E2-induced PI3-kinase activation: E2 10 nM 20 min, ICI 10 μM, wortmannin 30 nM
Method: PI3kinase activity in endothelial cell lysates was assayed using the borate thin layer chromatography method, as described.^34 Following a 6 h incubation in serum- and estrogen-deficient medium 199, endothelial cells were treated according to the indicated conditions, washed, and harvested in ice-cold lysis buffer (137 mM NaCl, 20 mM Tris-HCl, pH 7.4, 1 mM CaCl2, 1 mM Mg Cl2, 0.1 mM Na3VO4, 1% NP-40). After pelleting the cell debris, the supernatant was incubated for 1 hour at 4° C. with 5 μL of a rabbit antiserum directed against the p85 regulatory subunit of the PI3-kinase (Upstate Biotechnology, Lake Placid, N.Y.), and immunoprecipitated with the addition of 50 μL of a 1:1 slurry of protein A-agarose for 1 hour at 4° C. Following centrifugation, the immunoprecipitates were washed three times with lysis buffer, three times with 0.1 M Tris-HCl, pH 7.4, 5 mM LiCl, 0.1 mM Na3VO4, followed by two washes with 10 mM Tris-HCl, pH 7.4, 150 mM NaCl, 5 mM EDTA, 0.1 mM Na3VO4.
The immunoprecipitates were then mixed with 50 μL Tris-HCl, pH 7.4, 150 mM NaCl, 5 mM EDTA, 20 μg of phosphatidylinositol (Sigma, Saint Louis, Mo.), 10 μL 100 mM MgCl2 and 5 μL of a 0.88 mM ATP, 20 mM MgCl2 solution, containing 30 μCi of [γ-^32P]ATP (3000 Ci/mmol; NEN Life Science Products, Boston, Mass.). […] The phospholipids were extracted with 160 μL of chloroform/methanol (1:1, v/v). 50 μL of the organic phase, containing the labeled PI3-kinase products were separated by borate thin layer chromatography on glass-backed Silica Gel 60 plates (EM Separations, Gibbstown, N.J.) pretreated with a solution containing 25 mM trans-1,2-diaminocyclohexane-N,N,N′N′-tetraacetic acid (CDTA, Sigma, Saint Louis, Mo.), 66% (v/v) ethanol and 0.06 N NaOH, dried for 1 hour and then baked at 100° C. for 15 minutes. The chromatography was developed with a solution containing 37.5% (v/v) methanol, 30% (v/v) chloroform, 22.5% (v/v) pyridine (Sigma, Saint Louis, Mo.), 1.33% (v/v) formic acid, […] boric acid and 8.5 mM butylated hydroxytoluene (Sigma, Saint Louis, Mo.), briefly dried and exposed to autoradiography.

Akt/PKB = assay: Akt kinase assay (immunoprecipitated Akt, GSK-3 peptide); details: for stimulation of Akt kinase activity (words): E2/αE2 10 nM, insulin 100 nM
Method: Immunoprecipitated Akt kinase activity was assayed on endothelial cell lysates by using the Aktl/PKBα immunoprecipitation kinase assay kit (Upstate Biotechnology, Lake Placid, N.Y.). Endothelial cells were starved in phenol red-free199 medium with 0.4% estrogen-deprived FBS, treated, washed, and then harvested in ice-cold Buffer A (50 mM Tris-HCl, pH 7.5, 1 mM EDTA, 1 mM EGTA, […] Na3VO4, 0.1% (v/v) 2-mercaptoethanol, 1% Triton X-100, 50 mM sodium fluoride, 5 mM sodium pyrophosphate, 10 mM sodium glycerophosphate, 0.1 mM PMSF, 1 μg/mL of aprotinin, pepstatin, leupeptin and 1 μM microcystin). The cleared cell lysates were incubated for 1 hour at 4° C. with 4 μg/tube of anit-Akt1/PKBα PH domain immunoaffinity purified sheep IgG, after which 50 μL of a 1:1 (v/v) protein G-agarose slurry was added for an additional hour of incubation at 4° C. After centrifugation, the immunoprecipitates were washed three times with Buffer A containing 0.5 M NaCl, then two times with Buffer B (50 mM Tris-HCl, pH 7.5, 0.03% (w/v) Brij-35, 0.1 mM EGTA, 0.1% (v/v) 2-mercaptoethanol), and finally twice with 1×Assay Buffer (20 mM MOPS, pH 7.2, 25 mM β-glycerol phosphate, 5 mM EGTA, 1 mM Na3VO4, 1 mM DTT).
The immunoprecipitates were resuspended in 10 μL of ice-cold 1×Assay Buffer, and were sequentially added: 10 μL of 40 μM PKA inhibitor peptide ([…]-NH2—corresponding to residues 7-23 of human PKA inhibitor), 10 μL of Akt/PKB specific substrate peptide (100 μM) (RPRAATF—corresponding to the phosphorylation site of glycogen synthase kinase-3, specifically targeted by Akt/PKB, but not by other protein kinases such as Rsk-2 and p70 S6 kinase), and 10 μL of [γ-^32P]ATP stock solution (1×Assay Buffer with 500 μM ATP, 75 mM MgCl2, containing 1 μCi/μL [γ^32-P]ATP, 3000 Ci/mmol). The reaction was incubated at 37° C. for 30 minutes, after which 40 μL of the supernatant was mixed with 20 μL of 40% TCA and incubated for 5 minutes at room temperature. 40 μL of each final fraction were spotted onto the center of a 2 cm×2 cm P81 phosphocellulose paper. The assay squares were washed three times with 0.75% phosphoric acid for five minutes at room temperature, then once with acetone. The squares were then transferred to vials containing a liquid scintillation cocktail and read in a scintillation counter. Blank reaction for the detection of the unspecific background were performed by substituting the cell lysate with Buffer A at the beginning of the procedure, and aspecific endogenous phosphorylation of proteins in the sample extract was estimated by substituting in some samples 1×Assay Buffer for the Akt/PKB specific substrate peptide.

Molecule | stimulation of NO release / production (nitrite accumulation) (NO release) | stimulation of PI3-kinase activity (PI3-kinase; 20 min) | increase in PI3-kinase activity compared to baseline (PI3-kinase; E2 10 nM, 20 min) | PI3-kinase activity in the initial phase of stimulation (PI3-kinase; E2 10 nM, ≤10 min) | stimulation of Akt kinase activity (words) (Akt/PKB; 20 min) | increase in Akt kinase activity after 10 min (Akt/PKB; E2 stimulation, 10 min) [fold] | increase in Akt kinase activity after 20 min (Akt/PKB; E2 stimulation, 20 min) [fold] | effect on E2-induced NO release / production (NO release) | effect on E2-induced NO release / production (NO release; listed as ICI 182,780) | effect on acetylcholine-induced NO accumulation (NO release; acetylcholine 30 min) | effect on E2-induced PI3-kinase activation (PI3-kinase) | effect on E2-induced PI3-kinase activation (PI3-kinase; listed as ICI 182,780) | effect on E2-stimulated Akt kinase activity (Akt/PKB; ICI 10 μM, wortmannin 30 nM) | stimulation of NO release / production (nitrite accumulation) (NO release; listed as Insulin) | stimulation of PI3-kinase activity (PI3-kinase; 20 min, listed as Insulin) | stimulation of Akt kinase activity (words) (Akt/PKB; 20 min, listed as Insulin)
17β-estradiol [E2] | increases NO release | strong activation | approximately 5 fold | little or no PI3-kinase activity | activated; also recorded: stimulated | 1.5 | 2.3 |  |  |  |  |  |  |  |  | 
C[C@]12CC[C@@H]3c4ccc(O)cc4C[C@@H](CCCCCCCCC[S+]([O-])CCCC(F)(F)C(F)(F)F)[C@H]3[C@@H]1CC[C@@H]2O (stereo partly shown) [ICI 187,780] |  |  |  |  |  |  |  | completely blocked | prevent | not influenced; also recorded: not affected | full inhibition; also recorded: completely inhibited | completely blocked | nearly completely abolished; also recorded: almost completely inhibited |  |  | 
insulin: known activator of the PI3-kinase/Akt pathway | able to stimulate | comparable increase |  |  | substantial increase |  |  |  |  |  |  |  |  | activates nitrite release | marked activation | marked activation
